Measured values taken from article PMC4741576 (Oncotarget, 2015).

Assays:
[1] = test system: infant MLL-R ALL primary samples; test: xenograft of infant MLL-R ALL, leukemic burden; type: in vivo, human blasts in NSG mice
Source text: Therefore, we transplanted primary samples from infants with MLL-R ALL. […] To make our xenograft model even more aggressive, we transplanted cells that had already been passaged once through NOD/SCID/γc^null (NSG) mice in order to select for leukemia-initiating cells from the cryopreserved primary samples. We performed this experiment using 4 different infant MLL-R ALL primary samples (Figure 6A).
Mice were sacrificed at the start of week 4, or 4 days after the last treatment. […] Overall leukemic burden was quantified by averaging the percentage of blasts (human CD45+ and CD19+) detected in the bone marrow, spleen, and peripheral blood. Quantification of leukemic blasts was performed in duplicate.
Cryopreserved primary ALL cells were thawed, counted (TC10 Automated Cell Counter, BioRad, Hercules, CA), and resuspended in cold PBS. Adult NSG mice (Jackson Laboratories, Bar Harbor, ME) were sublethally irradiated (200 centiGray) 4 hours prior to the transplantation of 1 × 10^6 viable cells via tail vein injection. Mice were started on Uniprim medicated feed (Harlan Laboratories, Frederick, MD) ≥ 24 hours prior to transplantation in order to decrease opportunistic infections. Peripheral blood was collected via cheek venipuncture 4 to 6 weeks post-transplant and analyzed by FACS after staining with anti-human CD19-FITC and anti-human CD45-PE (BD Pharmingen). Leukemic blasts were defined as cells that co-expressed human CD45 and human CD19. Mice were sacrificed 2 to 4 weeks post-engraftment and leukemic cells were harvested from the spleen and bone marrow.
(§1) Leukemic blasts (1 × 10^6 per mouse) were then secondarily transplanted into sublethally irradiated NSG mice for treatment experiments. […] After sacrifice, cells were isolated from bone marrow, spleen, and peripheral blood; counted; and stained with anti-human FACS antibodies (CD19- FITC, CD45-PE/APC, 12G5 CXCR4-APC, 1D9 CXCR4-PE, CXCR7-PerCP, and/or CD49d-PE-Cy5).

[2] = test system: CXCR4; conditions: vs. control
Source text: as §1

[3] = test system: CD49d; test: CD49d surface expression in leukemic blasts from xenografted mice; type: in vivo, human; conditions: bone marrow, spleen and peripheral blood blasts, compared to control; differences not statistically significant
Source text: as §1

[4] = overall health of xenografted mice; conditions: 3 consecutive days for 2 weeks; POL5551 5 mg/kg s.c., cytarabine 200 mg/kg i.p.
Source text: (§2) CXCR4 antagonism has been advanced clinically in acute leukemia. Trials of plerixafor as a chemosensitizing agent have been completed in adults with relapsed/refractory and newly-diagnosed AML, [33] and children with relapsed/refractory acute leukemias. One concern about CXCR4 antagonism is that mobilized hematopoietic stem cells will become more susceptible to chemotherapy and lead to delayed blood count recovery.
as §1

[5] = biological target: T1, surface CXCR4 (Homo sapiens, UniProt P61073); test: 12G5 anti-CXCR4 antibody binding (FACS), ALL cell lines
T1 construct: endogenous in cells; host or cells: pediatric ALL cell lines (pre-B: Nalm-6, HB-1119 and others; T cell: Jurkat, CCRF-CEM-1301 and others)
T1 sequence (P61073 whole entry): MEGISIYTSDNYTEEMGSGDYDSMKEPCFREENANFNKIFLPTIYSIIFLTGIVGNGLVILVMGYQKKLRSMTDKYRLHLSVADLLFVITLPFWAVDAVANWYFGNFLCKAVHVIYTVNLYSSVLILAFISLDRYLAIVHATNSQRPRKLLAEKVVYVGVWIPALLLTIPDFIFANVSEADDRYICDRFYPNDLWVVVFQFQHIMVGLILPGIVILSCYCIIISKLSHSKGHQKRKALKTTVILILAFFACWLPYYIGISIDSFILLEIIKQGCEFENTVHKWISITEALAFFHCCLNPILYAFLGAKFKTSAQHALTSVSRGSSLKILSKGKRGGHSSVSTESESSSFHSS
Protocol: We then harvested cells and measured binding of the 12G5 anti-CXCR4 antibody, which attaches to the SDF-1α binding site of CXCR4, by FACS as a marker for surface CXCR4 expression.
12G5 anti-CXCR4 antibody binding was measured by FACS and MFI were normalized to control at each time point.
Conversely, 1D9 antibody binding is a measure of total surface CXCR4. […] At multiple time points, we measured binding to surface CXCR4 by flow cytometry using 3 anti-CXCR4 antibodies: 12G5, 1D9, and 2B11.
Cells were harvested at multiple time points, washed with ice-cold wash buffer (PBS with 0.5% bovine serum albumin, Sigma-Aldrich), stained with antibodies at manufacturer-recommended concentrations (12G5 anti-human CD184 [CXCR4]-APC, eBioscience, San Diego, CA; 12G5 anti-human CD184-PE-Cy5, BD Pharmingen, San Diego, CA; 1D9 anti-human CD184-PE, BD Pharmingen; 2B11 anti-mouse CD184-APC, eBioscience; anti-human CXCR7- PerCP, R&D Systems, Minneapolis, MN), washed, fixed with 1% paraformaldehyde (VWR, Radnor, PA), and stored at 4°C in the dark until analysis on a FACSCalibur (BD Biosciences, San Jose, CA). A live gate was drawn using FlowJo (TreeStar, Ashland, OR) according to forward/side scatter properties and used to calculate the MFI. MFI were normalized to the isotype control (IC) MFI at each time point and then normalized to the MFI:IC ratio of control-treated (0 nM) samples.

[6] = test system: pediatric ALL and acute myeloid leukemia (AML); conditions: cited from earlier work
Source text: ALL is the most common pediatric malignancy. […] However, children and young adults with high-risk and relapsed/refractory ALL continue to have suboptimal outcomes. […] Specifically, interaction between the cell surface receptor CXCR4 ...

[7] = test system: CXCR7; conditions: ALL; cited from earlier work
Source text: (§3) CXCR7 is a second receptor for SDF-1α, [24, 25] while VLA-4 is an integrin, [26] and both are important in the interaction of leukemia cells with the bone marrow stromal microenvironment.

[8] = test system: acute leukemias; conditions: several preclinical studies; cited from earlier work
Source text: Efforts to improve outcomes in pediatric ALL have largely been focused on factors intrinsic to the leukemic blast, such as genetic mutations or alterations in gene expression. However, it is likely that survival signals from the bone marrow microenvironment also contribute to treatment failure and relapse. As such, many groups have studied CXCR4 antagonism as a means to improve outcomes in acute leukemias. […] Our paper is ...

[9] = test system: acute leukemias; conditions: cited from earlier work
Source text: as §2, with “recovery. […] With regards to ...” for “recovery.”

[10] = test system: surface CXCR4; conditions: leukemic blasts; cited from earlier work
[11] = test system: surface CXCR4; conditions: leukemic blasts; cited from earlier work; remark: listed apart in the source
[12] = test system: ERK1/2; test: SDF-1α-induced phosphorylation of ERK1/2 (PhosphoFACS); type: cell-based, human; conditions: control-treated cells, SDF-1α 75 ng/mL for 15 minutes
Source text: as §3

Nc1ccn([C@@H]2O[C@H](CO)[C@@H](O)[C@@H]2O)c(=O)n1 [cytarabine]
overall leukemic burden compared to vehicle control ([1]; 3 consecutive days for 2 weeks, vs. vehicle control): significantly decreased total leukemic burden compared to vehicle control
overall leukemic burden ([1]; average of bone marrow, spleen, peripheral blood, 4 primary samples pooled, n = 5 mice/cohort, POL5551 5 mg/kg s.c., cytarabine 200 mg/kg i.p., 3 consecutive days for 2 weeks, vehicle control 56.2%): 36.7%
leukemic burden in bone marrow compared to vehicle control ([1]; bone marrow, cytarabine 200 mg/kg i.p., vs. vehicle control): did not lead to a significant decrease in leukemic burden compared to vehicle control
leukemic burden, bone marrow ([1]; bone marrow, POL5551 5 mg/kg s.c., cytarabine 200 mg/kg i.p., 3 consecutive days for 2 weeks): 49.5%
leukemic burden, blood ([1]; peripheral blood, POL5551 5 mg/kg s.c., cytarabine 200 mg/kg i.p., 3 consecutive days for 2 weeks): 29.6%
leukemic burden, spleen ([1]; spleen, POL5551 5 mg/kg s.c., cytarabine 200 mg/kg i.p., 3 consecutive days for 2 weeks): 30.8%
12G5 antibody binding in blasts from bone marrow and peripheral blood [2]: moderate but non-significant decrease in 12G5 antibody binding
CD49d mean fluorescence index (MFI) [3]: increased
appearance of mice at sacrifice [4]: thin and hunched at sacrifice

c1cc(CN2CCCNCCNCCCNCC2)ccc1CN1CCCNCCNCCCNCC1 [plerixafor]
12G5 antibody binding, potency relative to POL5551 / plerixafor ([5]; ALL cell lines, 48-hour time course): several-fold higher concentrations of plerixafor were needed to achieve similar levels of reduction of 12G5 antibody binding
inhibition at 0.04 µM ([5]; NALM-6, read-out: maximum inhibition of 12G5 antibody binding): ~20%
stromal protection and chemotherapy resistance [6]: could reverse stromal protection and chemotherapy resistance
surface expression of CXCR7 [7]: increase in surface expression of CXCR7
in vivo sensitivity to anti-leukemic therapies [8]: enhances in vivo sensitivity to anti-leukemic therapies
prolonged count recovery ([9]; phase 1/2 trials of plerixafor): none of them reported prolonged count recovery
tolerability and efficacy as a chemosensitizing agent ([9]; phase 1/2 trials, adults with AML, children with relapsed/refractory acute leukemias): showed tolerability and efficacy of plerixafor as a chemosensitizing agent
development of extramedullary disease after treatment ([9]; plerixafor trials): none of the aforementioned trials reported the development of extramedullary disease after treatment
12G5 antibody binding to surface CXCR4 [10]: decrease in 12G5 antibody binding
1D9 antibody binding to surface CXCR4 [11]: increase in 1D9 antibody binding

SDF-1α
ERK1/2 phosphorylation, effect of SDF-1α [12]: increase in phosphorylation of ERK1/2
